In patent US8987268B2, “Pyrrolopyridazine JAK3 inhibitors and their use for the treatment of inflammatory and autoimmune diseases” (Bristol-Myers Squibb Company, priority 2011, dated 2015):

Tests used:
GST-JAK3 enzyme = GST-JAK3 enzyme (Homo sapiens (Human), UniProt P52333); assay: JAK3 Kinase Assay Protocol (Caliper); format: biochemical; conditions: JAK3 kinase inhibition; read-out: LLE_JAK3_FB (IC50)
Protocol: JAK3 Kinase Assay Protocol (Caliper)
(§1) The assay reactions were performed in U-bottom 384-well plates. […] The reaction was initiated by the combination of GST-JAK3 enzyme with substrates and test compounds. The reactions were incubated at room temperature for 3 hours and terminated by adding 60 μl of 35 mM EDTA to each sample. Each reaction mixture was analyzed on the Caliper LabChip 3000 (Caliper, Hopkinton, Mass.) by electrophoretic separation of the fluorescent substrate and phosphorylated product. […] Compounds were dissolved at 10 mM in dimethylsulfoxide (DMSO) and evaluated at eleven concentrations. IC50 values were derived by non-linear regression analysis.

GST-JAK1 enzyme = GST-JAK1 enzyme (Homo sapiens (Human), UniProt P23458); assay: JAK1 Kinase Assay Protocol; format: biochemical; conditions: JAK1 kinase inhibition; read-out: LLE_JAK1 (IC50)
Protocol: JAK1 Kinase Assay Protocol
as §1, with “GST-JAK1” for “GST-JAK3”

Sequence of GST-JAK1 enzyme (P23458 whole entry): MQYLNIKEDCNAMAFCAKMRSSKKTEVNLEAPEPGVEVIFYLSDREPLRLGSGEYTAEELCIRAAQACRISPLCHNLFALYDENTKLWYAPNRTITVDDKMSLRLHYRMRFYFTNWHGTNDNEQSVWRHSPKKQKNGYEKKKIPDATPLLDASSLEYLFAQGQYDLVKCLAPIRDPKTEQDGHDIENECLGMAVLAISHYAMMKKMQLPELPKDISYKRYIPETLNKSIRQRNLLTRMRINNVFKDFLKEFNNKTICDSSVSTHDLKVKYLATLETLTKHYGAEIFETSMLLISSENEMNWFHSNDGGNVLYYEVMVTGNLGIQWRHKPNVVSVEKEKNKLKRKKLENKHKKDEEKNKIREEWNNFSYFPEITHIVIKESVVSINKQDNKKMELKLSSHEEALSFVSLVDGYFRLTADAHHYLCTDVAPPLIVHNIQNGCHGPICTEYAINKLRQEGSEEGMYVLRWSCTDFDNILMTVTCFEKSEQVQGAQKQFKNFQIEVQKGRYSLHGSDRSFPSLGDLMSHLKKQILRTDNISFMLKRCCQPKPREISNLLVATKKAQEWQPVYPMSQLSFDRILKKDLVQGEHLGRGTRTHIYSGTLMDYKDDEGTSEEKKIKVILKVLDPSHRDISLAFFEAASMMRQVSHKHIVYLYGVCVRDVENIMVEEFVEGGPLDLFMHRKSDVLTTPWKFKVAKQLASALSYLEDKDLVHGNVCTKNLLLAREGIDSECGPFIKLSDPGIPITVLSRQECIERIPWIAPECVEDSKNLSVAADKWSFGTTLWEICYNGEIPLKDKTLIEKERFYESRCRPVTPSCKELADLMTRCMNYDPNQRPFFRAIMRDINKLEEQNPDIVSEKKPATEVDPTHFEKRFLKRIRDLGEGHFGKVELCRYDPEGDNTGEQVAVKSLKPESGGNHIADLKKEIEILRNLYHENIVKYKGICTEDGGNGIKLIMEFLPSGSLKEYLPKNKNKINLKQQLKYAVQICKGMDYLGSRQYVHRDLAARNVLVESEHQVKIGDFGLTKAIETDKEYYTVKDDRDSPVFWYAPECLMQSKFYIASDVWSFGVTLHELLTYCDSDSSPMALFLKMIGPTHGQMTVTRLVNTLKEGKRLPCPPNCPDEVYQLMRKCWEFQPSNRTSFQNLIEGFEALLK
Sequence of GST-JAK3 enzyme (P52333 whole entry): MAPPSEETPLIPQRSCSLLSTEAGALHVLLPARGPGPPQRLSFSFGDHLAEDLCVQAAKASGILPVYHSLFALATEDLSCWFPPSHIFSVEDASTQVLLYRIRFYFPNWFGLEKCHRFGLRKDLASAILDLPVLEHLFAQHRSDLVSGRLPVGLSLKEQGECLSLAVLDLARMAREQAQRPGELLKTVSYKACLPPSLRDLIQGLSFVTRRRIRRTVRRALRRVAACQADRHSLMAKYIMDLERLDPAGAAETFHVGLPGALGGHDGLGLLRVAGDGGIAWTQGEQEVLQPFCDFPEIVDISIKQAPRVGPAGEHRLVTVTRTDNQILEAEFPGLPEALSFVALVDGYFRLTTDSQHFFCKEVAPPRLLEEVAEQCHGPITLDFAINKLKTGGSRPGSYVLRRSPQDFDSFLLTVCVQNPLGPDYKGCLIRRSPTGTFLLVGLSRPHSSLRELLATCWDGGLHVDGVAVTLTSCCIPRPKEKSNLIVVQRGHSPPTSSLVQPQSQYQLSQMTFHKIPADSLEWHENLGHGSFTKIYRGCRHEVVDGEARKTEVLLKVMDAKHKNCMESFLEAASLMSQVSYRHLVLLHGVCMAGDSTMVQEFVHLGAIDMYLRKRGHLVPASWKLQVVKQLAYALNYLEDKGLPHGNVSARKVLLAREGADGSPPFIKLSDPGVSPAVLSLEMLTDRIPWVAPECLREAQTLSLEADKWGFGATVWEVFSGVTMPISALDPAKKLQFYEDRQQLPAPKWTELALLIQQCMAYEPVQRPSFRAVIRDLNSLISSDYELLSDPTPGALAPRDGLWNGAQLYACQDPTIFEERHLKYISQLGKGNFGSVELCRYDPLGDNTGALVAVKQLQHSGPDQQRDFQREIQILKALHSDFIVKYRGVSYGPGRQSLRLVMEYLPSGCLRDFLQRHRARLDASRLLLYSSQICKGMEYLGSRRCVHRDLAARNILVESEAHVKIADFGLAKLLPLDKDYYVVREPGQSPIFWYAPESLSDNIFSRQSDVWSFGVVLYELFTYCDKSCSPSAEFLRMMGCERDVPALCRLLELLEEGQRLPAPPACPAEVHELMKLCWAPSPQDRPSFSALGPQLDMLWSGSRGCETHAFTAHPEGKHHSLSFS

With `CNC(=O)c1ccc(-c2cc3c(N[C@@H]4C[C@@H]5CN(C(=O)C(C)(C)O)C[C@@H]5[C@H]4C)c(C(N)=O)cnn3c2)cn1` [Example 63, 4-(((3aS,4R,5R,6aS)-2-(2-hydroxy-2-methylpropanoyl)-4-methyloctahydrocyclopenta[c]pyrrol-5-yl)amino)-6-(6-(methylcarbamoyl)-3-pyridinyl)pyrrolo[1,2-b]pyridazine-3-carboxamide] the IC50 (GST-JAK3 enzyme) was 0.7 nM and the IC50 (GST-JAK1 enzyme) was 0.4 nM.

`CC[C@@H]1CN(C(=O)[C@H](C)O)CC[C@H]1Nc1c(C(N)=O)cnn2cc(-c3cnn(CC(C)C)c3)cc12` [Example 137, 4-((3R,4R)-3-ethyl-1-((S)-2-hydroxypropanoyl)piperidin-4-ylamino)-6-(1-isobutyl-1H-pyrazol-4-yl)pyrrolo[1,2-b]pyridazine-3-carboxamide] gave an IC50 (GST-JAK3 enzyme) of 1.4 nM and an IC50 (GST-JAK1 enzyme) of 2 nM.

In the case of `CC[C@@H]1CN(C(=O)C(C)(C)O)CC[C@H]1Nc1c(C(N)=O)cnn2cc(-c3ccnc(C)c3)cc12` [Example 131, 4-((3R,4R)-3-ethyl-1-(2-hydroxy-2-methylpropanoyl)piperidin-4-ylamino)-6-(2-methylpyridin-4-yl)pyrrolo[1,2-b]pyridazine-3-carboxamide], the IC50 (GST-JAK3 enzyme) is reported as 7.1 nM and the IC50 (GST-JAK1 enzyme) is reported as 3.6 nM.

Work on `CCOC(=O)N1CCC[C@@H](Nc2c(C(N)=O)cnn3cc(-c4ccccc4)cc23)C1` [Example 51, ethyl (3R)-3-((3-carbamoyl-6-phenylpyrrolo[1,2-b]pyridazin-4-yl)amino)-1-piperidinecarboxylate] yielded an IC50 (GST-JAK3 enzyme) of 285 nM and an IC50 (GST-JAK1 enzyme) of 903 nM.

In the case of `NC(=O)c1cnn2cc(-c3cncnc3)cc2c1NC1CCOCC1` [Example 32, 6-(5-pyrimidinyl)-4-(tetrahydro-2H-pyran-4-ylamino)pyrrolo[1,2-b]pyridazine-3-carboxamide], the IC50 (GST-JAK3 enzyme) is reported as 148 nM and the IC50 (GST-JAK1 enzyme) is reported as 813 nM.

`CO[C@H]1CN(C(=O)C2(C#N)CC2)C[C@H]1Nc1c(C(N)=O)cnn2cc(-c3ccc(C#N)cc3)cc12` [Example 308, 4-(((3R,4S)-1-(1-cyanocyclopropanecarbonyl)-4-methoxypyrrolidin-3-yl)amino)-6-(4-cyanophenyl)pyrrolo[1,2-b]pyridazine-3-carboxamide] was tested, and the IC50 (GST-JAK3 enzyme) was 6.6 nM and the IC50 (GST-JAK1 enzyme) was 1.5 nM.

`CC[C@H]1CN(c2ncc(C#N)s2)C[C@H]1Nc1c(C(N)=O)cnn2cc(-c3cnn(CC(C)C)c3)cc12` [Example 183] showed an IC50 (GST-JAK3 enzyme) of 0.2 nM and an IC50 (GST-JAK1 enzyme) of 0.8 nM.

`COc1ccc(-c2cc3c(N[C@@H]4CCN(C(=O)C(N)=O)CC4(C)C)c(C(N)=O)cnn3c2)cn1` [Example 55, (R)-4-(1-(2-amino-2-oxoacetyl)-3,3-dimethylpiperidin-4-ylamino)-6-(6-methoxypyridin-3-yl)pyrrolo[1,2-b]pyridazine-3-carboxamide] was tested, and the IC50 (GST-JAK3 enzyme) was 0.9 nM and the IC50 (GST-JAK1 enzyme) was 4.4 nM.

With `CC[C@@H]1CN(S(C)(=O)=O)CC[C@H]1Nc1c(C(N)=O)cnn2cc(-c3cnn(CCC#N)c3)cc12` [Example 126, 6-(1-(2-cyanoethyl)-1H-pyrazol-4-yl)-4-((3R,4R)-3-ethyl-1-(methylsulfonyl)piperidin-4-ylamino)pyrrolo[1,2-b]pyridazine-3-carboxamide] the IC50 (GST-JAK3 enzyme) was 1.5 nM and the IC50 (GST-JAK1 enzyme) was 1 nM.

`COc1ccc(-c2cc3c(N[C@@H]4CN(S(C)(=O)=O)C[C@@H]4OC)c(C(N)=O)cnn3c2)cn1` [Example 315, 4-((3R,4S)-4-methoxy-1-(methylsulfonyl)pyrrolidin-3-ylamino)-6-(6-methoxypyridin-3-yl)pyrrolo[1,2-b]pyridazine-3-carboxamide] was tested, and the IC50 (GST-JAK3 enzyme) was 8.9 nM and the IC50 (GST-JAK1 enzyme) was 8 nM.

Work on `CC[C@H]1CN(C(=O)C2(C#N)CC2)C[C@H]1Nc1c(C(N)=O)cnn2cc(-c3ccc(C)nc3)cc12` [Example 221, 4-((3S,4S)-1-(1-cyanocyclopropanecarbonyl)-4-ethylpyrrolidin-3-ylamino)-6-(6-methylpyridin-3-yl)pyrrolo[1,2-b]pyridazine-3-carboxamide] yielded an IC50 (GST-JAK3 enzyme) of 1.4 nM and an IC50 (GST-JAK1 enzyme) of 1 nM.

For `CCOc1ncc(-c2cc3c(N[C@@H]4CN(C(=O)C5(C#N)CC5)C[C@@H]4CF)c(C(N)=O)cnn3c2)cn1` [Example 281, 4-((3S,4S)-1-(1-cyanocyclopropanecarbonyl)-4-(fluoromethyl)pyrrolidin-3-ylamino)-6-(2-ethoxypyrimidin-5-yl)pyrrolo[1,2-b]pyridazine-3-carboxamide], the IC50 (GST-JAK3 enzyme) was 11.8 nM and the IC50 (GST-JAK1 enzyme) was 1.8 nM.

`CCCC(=O)O[C@H]1CCN(c2cc3c(N[C@@H]4CCN(c5ncc(C#N)cn5)CC4(C)C)c(C(N)=O)cnn3c2)C1=O` [Example 122, (S)-1-(3-carbamoyl-4-(((R)-1-(5-cyanopyrimidin-2-yl)-3,3-dimethylpiperidin-4-yl)amino)pyrrolo[1,2-b]pyridazin-6-yl)-2-oxopyrrolidin-3-yl butyrate] gave an IC50 (GST-JAK3 enzyme) of 1.4 nM and an IC50 (GST-JAK1 enzyme) of 2.4 nM.

With `CC[C@H]1CN(C(=O)C2(C#N)CC2)C[C@H]1Nc1c(C(N)=O)cnn2cc(-c3cn(C)nc3C)cc12` [Example 220, 4-((3S,4S)-1-(1-cyanocyclopropanecarbonyl)-4-ethylpyrrolidin-3-ylamino)-6-(1,3-dimethyl-1H-pyrazol-4-yl)pyrrolo[1,2-b]pyridazine-3-carboxamide] the IC50 (GST-JAK3 enzyme) was 1.5 nM and the IC50 (GST-JAK1 enzyme) was 1.1 nM.

Work on `CCNC(=O)c1ccc(-c2cc3c(N[C@@H]4CN(C(=O)C(C)(C)C#N)C[C@@H]4CC)c(C(N)=O)cnn3c2)cn1` [Example 252, 4-((3S,4S)-1-(2-cyano-2-methylpropanoyl)-4-ethylpyrrolidin-3-ylamino)-6-(6-(ethylcarbamoyl)pyridin-3-yl)pyrrolo[1,2-b]pyridazine-3-carboxamide] yielded an IC50 (GST-JAK3 enzyme) of 8.6 nM and an IC50 (GST-JAK1 enzyme) of 4.3 nM.

For `C[C@@H]1[C@H]2CN(S(C)(=O)=O)C[C@H]2C[C@H]1Nc1c(C(N)=O)cnn2cc(-c3nnn(C)n3)cc12` [Example 67, 4-(((3aS,4R,5R,6aS)-4-methyl-2-(methylsulfonyl)octahydrocyclopenta[c]pyrrol-5-yl)amino)-6-(2-methyl-2H-tetrazol-5-yl)pyrrolo[1,2-b]pyridazine-3-carboxamide], the IC50 (GST-JAK3 enzyme) was 0.4 nM and the IC50 (GST-JAK1 enzyme) was 1.3 nM.

For `NC(=O)c1cnn2cc(-c3ccccc3F)cc2c1NC1CCOCC1` [Example 34, 6-(2-fluorophenyl)-4-(tetrahydro-2H-pyran-4-ylamino)pyrrolo[1,2-b]pyridazine-3-carboxamide], the IC50 (GST-JAK3 enzyme) was 40 nM and the IC50 (GST-JAK1 enzyme) was 80 nM.

Compound `C[C@@H]1[C@H]2CN(C(=O)C(C)(C)O)C[C@H]2C[C@H]1Nc1c(C(N)=O)cnn2cc(-c3cnc(N)nc3)cc12` [Example 62, 6-(2-amino-5-pyrimidinyl)-4-(((3aS,4R,5R,6aS)-2-(2-hydroxy-2-methylpropanoyl)-4-methyloctahydrocyclopenta[c]pyrrol-5-yl)amino)pyrrolo[1,2-b]pyridazine-3-carboxamide] has an IC50 (GST-JAK3 enzyme) of 1 nM and an IC50 (GST-JAK1 enzyme) of 3.6 nM.

Work on `CC1(C)CN(c2ccc(C#N)cn2)CC[C@H]1Nc1c(C(N)=O)cnn2cc(N3CC[C@@H](O)C3=O)cc12` [Example 105, 4-((R)-1-(5-cyanopyridin-2-yl)-3,3-dimethylpiperidin-4-ylamino)-6-((R)-3-hydroxy-2-oxopyrrolidin-1-yl)pyrrolo[1,2-b]pyridazine-3-carboxamide] yielded an IC50 (GST-JAK3 enzyme) of 0.2 nM and an IC50 (GST-JAK1 enzyme) of 0.7 nM.

For `CC[C@H]1CN(C(=O)C2(C#N)CC2)C[C@H]1Nc1c(C(N)=O)cnn2cc(-c3cc(C)no3)cc12` [Example 292, 4-(((3S,4S)-1-(1-cyanocyclopropanecarbonyl)-4-ethylpyrrolidin-3-yl)amino)-6-(3-methylisoxazol-5-yl)pyrrolo[1,2-b]pyridazine-3-carboxamide], the IC50 (GST-JAK3 enzyme) was 0.5 nM and the IC50 (GST-JAK1 enzyme) was 0.7 nM.

`CC[C@H]1CN(c2ncc(C#N)s2)C[C@H]1Nc1c(C(N)=O)cnn2cc(-c3cnn(C)c3)cc12` [Example 182, 4-((3S,4S)-1-(5-cyanothiazol-2-yl)-4-ethylpyrrolin-3-ylamino)-6-(1-methyl-1H-pyrazol-4-yl)pyrrolo[1,2-b]pyridazine-3-carboxamide] was tested, and the IC50 (GST-JAK3 enzyme) was 0.3 nM and the IC50 (GST-JAK1 enzyme) was 0.8 nM.

Compound `CNC(=O)c1ccc(-c2cc3c(N[C@@H]4CN(C(=O)OC)C[C@@H]4C)c(C(N)=O)cnn3c2)cn1` [Example 213, (3S,4S)-methyl 3-((3-carbamoyl-6-(6-(methylcarbamoyl)pyridin-3-yl)pyrrolo[1,2-b]pyridazin-4-yl)amino)-4-methylpyrrolidine-1-carboxylate] has an IC50 (GST-JAK3 enzyme) of 7.5 nM and an IC50 (GST-JAK1 enzyme) of 4.7 nM.

Compound `C[C@@H]1[C@H]2CN(C(=O)CO)C[C@H]2C[C@H]1Nc1c(C(N)=O)cnn2cc(-c3ccc(C(N)=O)cc3)cc12` [Example 61, 6-(4-carbamoylphenyl)-4-(((3aS,4R,5R,6aS)-2-glycoloyl-4-methyloctahydrocyclopenta[c]pyrrol-5-yl)amino)pyrrolo[1,2-b]pyridazine-3-carboxamide] has an IC50 (GST-JAK3 enzyme) of 0.4 nM and an IC50 (GST-JAK1 enzyme) of 0.3 nM.

`CNC(=O)Cn1cc(-c2cc3c(N[C@@H]4CN(c5ccc(Cl)cn5)C[C@@H]4C)c(C(N)=O)cnn3c2)cn1` [Example 188, 4-(((3S,4S)-1-(5-chloropyridin-2-yl)-4-methylpyrroldin-3-yl)amino)-6-(1-(2-(methylamino)-2-oxoethyl)-1H-pyrazol-4-yl)pyrrolo[1,2-b]pyridazine-3-carboxamide] showed an IC50 (GST-JAK3 enzyme) of 0.5 nM and an IC50 (GST-JAK1 enzyme) of 0.4 nM.
